# Source: ChEMBL document CHEMBL5143578, “Elucidation of structure-activity relationship of humulanolides and identification of humulanolide analog as a novel HSP90 inhibitor” (Bioorg Med Chem Lett, 2022)
# Calls of active or inactive are those of the source. No cut-off for these calls is given here.
# How the values were obtained:
# HCT-116 = test: Antiproliferative activity against human HCT-116 cells incubated for 24 hrs by MTT assay; assay type: functional, cell-based; conditions: HCT-116, 24 h
# CHL-1 = test: Antiproliferative activity against human CHL-1 cells incubated for 24 hrs by MTT assay; assay type: functional, cell-based; conditions: CHL-1, 24 h
# A549 = test: Antiproliferative activity against human A549 cells incubated for 24 hrs by MTT assay; assay type: functional, cell-based; conditions: A549, 24 h
# PC-3 = test: Antiproliferative activity against human PC-3 cells incubated for 24 hrs by MTT assay; assay type: functional, cell-based; conditions: PC-3, 24 h
# Ca9-22 = test: Antiproliferative activity against human Ca9-22 cells incubated for 24 hrs by MTT assay; assay type: functional, cell-based; conditions: Ca9-22, 24 h
# SK-MEL-28 = test: Antiproliferative activity against human SK-MEL-28 cells incubated for 24 hrs by MTT assay; assay type: functional, cell-based; conditions: SK-MEL-28, 24 h
# HT-1080 [1] = test: Antiproliferative activity against human HT-1080 cells incubated for 24 hrs by MTT assay; assay type: functional, cell-based; conditions: HT-1080, 24 h
# HeLa = test: Antiproliferative activity against human HeLa cells incubated for 24 hrs by MTT assay; assay type: functional, cell-based
# HT-1080 [2] = test: Upregulation of HSP70 protein expression in human HT-1080 cells by Western blotting analysis; assay type: functional, cell-based
# HT-1080 [3] = test: Induction of cell morphological changes in human HT-1080 cells at 10 uM incubated for 24 hrs by phase contrast microscopic analysis; assay type: functional, cell-based
# [4] = biological target: T1, Heat shock protein HSP90 (Homo sapiens) (UniProt P07900+P08238); test: Inhibition of HSP90 in human HT-1080 cells assessed as downregulation of Akt protein expression measured after 24 hrs by Western blot analysis; assay type: cell-based; conditions: dose 3-30 µM
# [5] = biological target: T1, Heat shock protein HSP90 (Homo sapiens); test: Inhibition of HSP90 in human HT-1080 cells assessed as decrease in CDK4 protein level by measuring half-life of CDK4 protein at 20 uM measured upto 24 hrs in the presence of cycloheximide by Western blotting analysis; assay type: cell-based
# [6] = biological target: T1, Heat shock protein HSP90 (Homo sapiens); test: Inhibition of HSP90 in human HT-1080 cells assessed as downregulation of CDK4 protein expression measured after 24 hrs by Western blot analysis; assay type: cell-based; conditions: dose 3-30 µM
# HT-1080 [7] = test: Induction of cell morphological changes in human HT-1080 cells at 20 uM incubated for 24 hrs by phase contrast microscopic analysis; assay type: functional, cell-based
# [8] = biological target: T1, Heat shock protein HSP90 (Homo sapiens); test: Inhibition of HSP90 in human HT-1080 cells assessed as upregulation of HSP70 protein expression measured after 24 hrs by Western blot analysis; assay type: cell-based; conditions: dose 3-30 µM
IC50 (HCT-116) [µM],IC50 (A549) [µM],IC50 (PC-3) [µM],IC50 (SK-MEL-28) [µM],IC50 (HT-1080 [1]) [µM],IC50 (HeLa) [µM],inhibition [4],T1/2 [5] [h],inhibition [6],inhibition [8],Compound,IC50 (CHL-1) [µM],IC50 (Ca9-22) [µM],Activity (HT-1080 [2]),Activity (HT-1080 [3]),Activity (HT-1080 [7])
9.82,6.62,2.65,> 10,8.17,8.19,,,,,C/C1=C/CCC2=C[C@H](OC2=O)C(C)(C)/C=C/C1=O,> 10,7.52,Active,,
6.59,5.51,3.13,5.26,5.31,8.64,,,,,C/C1=C\CCC2=C[C@H](OC2=O)C(C)(C)/C=C/C1=O,4.71,4.79,Active,,
> 10,> 10,> 10,> 10,> 10,> 10,,,,,C/C1=C\CCC2=C[C@H](OC2=O)C(C)(C)/C=C/[C@@H]1O,> 10,> 10,,,
> 10,> 10,> 10,> 10,> 10,> 10,,,,,C/C1=C/CCC2=C[C@H](OC2=O)C(C)(C)/C=C\C1=O,> 10,9.89,,,

# Further lines, the compound ahead of its results:
Compound,IC50 (HCT-116) [µM],IC50 (A549) [µM],IC50 (PC-3) [µM],IC50 (SK-MEL-28) [µM],IC50 (HT-1080 [1]) [µM],IC50 (HeLa) [µM],inhibition [4],T1/2 [5] [h],inhibition [6],inhibition [8],IC50 (CHL-1) [µM],IC50 (Ca9-22) [µM],Activity (HT-1080 [2]),Activity (HT-1080 [3]),Activity (HT-1080 [7])
CC1(C)/C=C/[C@H](O)[C@@]2(C)O[C@H]2CCC2=C[C@@H]1OC2=O,> 10,> 10,> 10,> 10,> 10,> 10,,,,,> 10,> 10,,,
COC1=C2C[C@@H](C)C[C@H](OC)[C@H](O)[C@@H](C)/C=C(\C)[C@H](OC(N)=O)[C@@H](OC)/C=C\C=C(/C)C(=O)NC(=CC1=O)C2=O,,,,,,,,,,,,,,Active,
CC1(C)/C=C/C(=O)[C@@]2(C)O[C@@H]2CCC2=C[C@@H]1OC2=O,> 10,> 10,> 10,> 10,> 10,> 10,,,,,> 10,> 10,,,
C/C1=C/CC[C@@H]2C(=O)O[C@H]3[C@@H]2C(=CC3(C)C)C1=O,> 10,> 10,> 10,> 10,> 10,> 10,,,,,> 10,> 10,,,
CC1(C)[C@H]2[C@H]3[C@@H]1OC(=O)C31CC[C@@H]3O[C@]3(C)C(=O)[C@H]21 (some centres undefined),> 10,> 10,> 10,> 10,> 10,> 10,,,,,> 10,> 10,,,
CC1(C)/C=C/[C@H](O)[C@@]2(C)O[C@@H]2CCC2=C[C@@H]1OC2=O,> 10,> 10,> 10,> 10,> 10,> 10,,,,,> 10,> 10,,,
C/C1=C/CCC23C(=O)O[C@H]4[C@@H]2[C@@H](C1=O)[C@@H]3C4(C)C,> 10,> 10,> 10,> 10,> 10,> 10,,,,,> 10,> 10,,,
CC1=CCCC23C(=O)O[C@H]4[C@@H]2[C@@H]([C@H]3C1=O)C4(C)C (some centres undefined),> 10,> 10,> 10,> 10,> 10,> 10,,,,,> 10,> 10,,,
CC1(C)/C=C/C(=O)[C@@]2(C)O[C@H]2CCC2=C[C@@H]1OC2=O,1.22,3.02,1.81,3.43,6.54,4.78,Active,8,Active,Active,3.63,2.94,,,Active
